One data set deals with ADCK3 (Homo sapiens, UniProt Q8NI60). As to the kind of experiment: Kinase panel: ADCK3. Particulars: 10 μM EP009. It is filed as biochemical. The procedure:
Achieving JAK3 selectivity remains a significant challenge in the development of new small molecules for the treatment of cancer and immune-derived diseases. As such, the inventors employed cell-based screening assays of small-molecule libraries based upon the chemical scaffold of the established JAK3 inhibitor NC1153 (Stepkowski et al., J Immunol. (2005), 175(7):4236-4246) EP009 (FIG. 2A) was selected as a lead compound due to improved intrinsic stability (>95% purity in various solvents at 37° C. for 24 hours; FIG. 3) and high-degree of JAK3 selectivity. To test JAK3 versus JAK2 specificity of EP009, the IL-2/JAK3-dependent Kit225, and IL-3/JAK2-dependent BaF/3 cell lines were used. Kit225 and BaF/3 cells growing in the presence of IL-2 or IL-3, respectively, were treated with ascending concentrations of EP009 for 12 hours and cellular JAK3 and JAK2 tyrosine phosphorylation levels detected by Western blot analysis (FIGS. 2B and 2C). Following densitometric analysis, EP009 was determined to dose-dependently reduce IL-2-mediated JAK3 tyrosine phosphorylation with a cellular 50% inhibitory concentration (IC50) between 10 and 20 μM (FIG. 2B). […] To globally evaluate specificity, the inhibitory activity of EP009 was measured against a panel of protein kinases distributed throughout the kinome using the scanEDGE profiling service (KINOMEscan). […]

Another data set has as its system HEK293. As to the kind of experiment: HEK293 cell viability (MTS). It is filed as cell-based, human. As to conditions: 72 hours, concentrations giving complete loss of JAK3-dependent cell viability (0-10 μM). The procedure: FIGS. 2A-2F. Selective inhibition of JAK3 by EP009 results in loss of JAK3-dependent tumor cell line viability with no detectable off-target effects in key cell types. (A) Chemical structure of EP009 (M.W. 224.34). (B) Kit225 or (C) BaF/3 cells cultured in the presence of IL-2 or IL-3, respectively, were treated with vehicle (PBS; lane a) or increasing amounts of EP009 (0-50 μM; lanes b-h) for 12 hours. Cells were then lysed, clarified, and immunoprecipitated (IP) with anti-JAK3 (α-JAK3) or anti-JAK2 (α-JAK2), and subjected to Western blot (WB) analysis with anti-phosphotyrosine (α-pY). Blots were stripped and reprobed with corresponding antibody to verify equivalent protein loading. […] (E) Kit225 or BaF/3 cells were cultured with increasing amounts of EP009 (0-10 μM) for 72 hours and cell viability measured with the MTS tetrazolium salt assay. Values represent mean absorbance (OD490-OD650 nm) normalized to vehicle (PBS) treated control cells, while error bars represent the standard deviation (n=3). (F) HEK293, HEPG2, or naïve primary human PBMCs were cultured with increasing amounts of EP009 (0-10 μM) for 72 hours and cell viability measured with the MTS tetrazolium salt assay. Values represent mean absorbance (OD490-OD650 nm) normalized to vehicle (PBS) treated control cells, while error bars represent the standard deviation (n=3). […]

The nature of data set [1]: Stability analysis in solvents using NMR and HPLC. It is filed as physicochemical. The procedure:
FIG. 3. EP009 is structurally stable under varying solvent and temperature conditions. EP009 was dissolved in DMSO, DMSO:H20 (3:2 ratio), or methanol, and incubated at 25° C. or 37° C. for 24 hours.
FIG. 11 illustrates the dose-dependent effect of (FIG. 11A) freshly prepared EP-009(P) and (FIG. 11B) EP-009(P) stored in aqueous conditions for 48 hr at room temperature on IL-2/JAK3-dependent Kit225 cell viability. FIG. 12 illustrates LC-MS/MS detection of EP-009 (5 ng/ml) in mouse plasma at a retention time of 1.91 min.

Molecules are shown by their SMILES.

ADCK3, sequence (Q8NI60 163-647): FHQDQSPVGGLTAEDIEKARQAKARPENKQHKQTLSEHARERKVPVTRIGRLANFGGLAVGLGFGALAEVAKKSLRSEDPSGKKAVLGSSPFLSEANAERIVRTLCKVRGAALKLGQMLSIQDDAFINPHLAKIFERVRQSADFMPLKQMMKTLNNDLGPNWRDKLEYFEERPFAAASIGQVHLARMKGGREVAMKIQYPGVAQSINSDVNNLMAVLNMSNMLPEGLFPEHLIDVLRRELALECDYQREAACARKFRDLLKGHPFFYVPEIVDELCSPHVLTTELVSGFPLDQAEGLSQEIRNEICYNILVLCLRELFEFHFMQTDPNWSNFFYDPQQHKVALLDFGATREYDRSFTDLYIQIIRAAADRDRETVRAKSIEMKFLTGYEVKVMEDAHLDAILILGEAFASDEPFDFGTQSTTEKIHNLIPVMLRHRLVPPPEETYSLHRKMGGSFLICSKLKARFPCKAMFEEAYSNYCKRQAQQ

For `C=C1CCCCCCCCCC(CO)C1=O` (stereo not shown) [EP009, 2-(Hydroxymethyl)-12-methylenecyclododecanone], on ADCK3, the “Kinase Activity (% of Control)” value is reported as 98 % of Control. Moreover, the “effect on HEK293 cell viability” value with HEK293 was “no detectable loss of cell viability”. Also, the “stability under various solubility conditions” value in data set [1] (24 hr at 25° C. and 37° C.) is “stabile”. Moreover, the “intrinsic stability (purity)” value in data set [1] (various solvents at 37° C. for 24 hours) is on record as greater than 95%.
